The source of these data is US11352352B2, “Aminopyrimidine compound, preparation method therefor and use thereof” (BEIJING ADAMADLE BIOTECHNOLOGY LIMITED LIABILITY COMPANY, priority 2017, dated 2022).

Test in all cases: Cell proliferation inhibition experiment, CellTiter-Glo (CTG) method
Assay type in all cases: cell-based
On the technique in general: In ATP-based viability assays light output follows the ATP content of the culture.

The test system of one experiment is PC-9. Conditions: Homo sapiens, PC-9, 72 h, PC-9 cells, 3 days. On the procedure: (§1) Cell Proliferation Inhibition Experiment
(§2) Compounds were tested in the selected cell lines, and solvent is set as control, nine concentrations were detected with three parallel wells for each concentration.
(§3) 2. Reagents and Materials • 1) fetal bovine serum FBS (GIBCO, Cat #10099-141) • 2) CellTiter-Glo® Luminescent Cell Viability Assay (Promega, Cat #G7572) • 3) 96-well plate with flat clear bottom, black wall plates (Corning®, Cat #3340)
(§4) The first day: Incubation and plant of cells • 1) Cells in logarithmic growth phase were harvested and counted by cell counter. Cell viability was detected by trypan blue exclusion assay to ensure that the viability of each cell line was above 90%. • 2) Cell concentration was adjusted by diluting complete culture medium, and 90 μL cell suspension was added to a 96-well plate (T0 plate and drug plate to be tested) to make the cell density reach the specified concentration. • 3) Cells in 96-well plate were incubated overnight at condition of 37° C., 5% CO2 and 95% humidity.
(§5) The second day: Reading T0 plate • 1) 10 μL culture medium was added to T0 plate. • 2) CTG reagent was melt, while the cell plate was balanced to room temperature for 30 minutes. • 3) The same volume of CTG solution was added to each well. • 4) The cell plate was vibrated for 2 minutes on an orbital shaker to lyze the cells. • 5) The cell plate was placed at room temperature for 10 minutes to stabilize the cold light signal. • 6) The cold light value was read with EnVision.
(§6) Drug Addition • 1) Drug dilution. The compounds to be tested were dissolved and packaged, then a gradient elution was performed to obtain a solution diluted 10 times. • 2) Drug addition. […] drug solution was added into each well of the 96-well plate, which was inoculated cells, three parallel wells were set for each cell concentration.
(§7) The third day: reading plate at the terminal • 1) CTG reagent was melt, while the cell plate was balanced to room temperature for 30 minutes. • 2) The same volume of CTG solution was added to each well. • 3) The cell plate was vibrated for 2 minutes on an orbital shaker to lyze the cells. • 4) The cell plate was placed at room temperature for 10 minutes to stabilize the cold light signal. • 5) The cold light value was read with EnVision
(§8) Data were analyzed using GraphPad Prism 5.0 software, and non-linear S curve regression was used for fitting the data to give a dose-effect curve, IC50 value was calculated accordingly. Cell Survival Rate (%)=(Lumdrugs−Lumcontrol)/(Lumcell−Lumcontrol)×100%.

The test system of another experiment is NCI-H1975. The settings on record: for IC50: Homo sapiens, NCI-H1975, 72 h, NCI-H1975 cells, CTG, 3 days; for A-431/NCI-H1975 Selectivity: ratio of A-431 IC50 to NCI-H1975 IC50. On the procedure:
as §1, §2, §3, §4, §5, §6, §7, §8

The subject of another experiment is A-431. The settings on record: Homo sapiens, A-431, 72 h, A-431 cells, 3 days. On the procedure:
as §1, §2, §3, §4, §5
Drug Addition • 1) Drug dilution. The compounds to be tested were dissolved and packaged, then a gradient elution was performed to obtain a solution diluted 10 times. • 2) Drug addition. […] drug solution was added into each well of the 96-well plate, which was inoculated cells, three parallel wells were set for each cell concentration. The highest concentration of the compounds to be tested on A-431 was 30 μM, nine concentrations was set with 3 times dilution; while the highest concentration on NCI-H1975 and PC-9 was 1.111 μM, 9 concentrations was set with 3 times dilution. • 3) Culture. Cells in 96-well plates in which drugs have been added were cultured at condition of 37° C., 5% CO2 and 95% humidity for 3 days, and then CTG assay was performed respectively.
as §7, §8

A word on the IC50: it is the point on the concentration scale where inhibition reaches its midpoint. On to `C=CC(=O)Nc1cc(Nc2cc(-c3ccc4c(cnn4C)c3)ncn2)c(OC)cc1N(C)CCN(C)C` [compound 1], for which the IC50 with PC-9 is 5.6 nM; with NCI-H1975 it was 4.7 nM; with A-431, 890 nM.
Taken in the same sequence, the figures for `C=CC(=O)Nc1cc(Nc2cc(-c3ccc4cnn(C)c4c3)ncn2)c(OC)cc1N(C)CCN(C)C` [compound 2] were 4.4 nM, 6.6 nM and 362 nM.
As to `C=CC(=O)Nc1cc(Nc2cc(-c3cc(C(F)(F)F)c4c(cnn4C)c3)ncn2)c(OC)cc1N(C)CCN(C)C` [compound 4], the IC50 was found to be 10.1 nM in the experiment on PC-9, 15.1 nM in the experiment with NCI-H1975 and 514 nM in the experiment with A-431. Further, the “A-431/NCI-H1975 Selectivity” value in the experiment on NCI-H1975 is 34.0.
For the compound `C=CC(=O)Nc1cc(Nc2cc(-c3cc4cnn(C)c4cc3F)ncn2)c(OC)cc1N(C)CCN(C)C` [compound 5], the IC50 was found to be 3.9 nM in the experiment with PC-9, 5.6 nM in the experiment on NCI-H1975 and 302 nM in the experiment with A-431.
Regarding `C=CC(=O)Nc1cc(Nc2cc(-c3cc(F)c4c(cnn4C)c3)ncn2)c(OC)cc1N(C)CCN(C)C` [compound 6], the 50% inhibitory concentration (IC50) with PC-9 worked out at 19.4 nM; with NCI-H1975, 32.1 nM; in the experiment on A-431, 1720 nM. Also, in the experiment on NCI-H1975, the “A-431/NCI-H1975 Selectivity” value worked out at 53.7.
Taken in the same sequence, the figures for `C=CC(=O)Nc1cc(Nc2cc(-c3ccc4nn(C)cc4c3)ncn2)c(OC)cc1N(C)CCN(C)C` [compound 7] were 10.7 nM, 11.1 nM, 129 nM and 11.6.
The corresponding values for `C=CC(=O)Nc1cc(Nc2cc(-c3ccc4ncsc4c3)ncn2)c(OC)cc1N1CCN(C)CC1` [compound 9] are 36.2 nM, 52.6 nM, 767 nM and 14.6.
`C=CC(=O)Nc1cc(Nc2cc(-c3ccc4c(cnn4C)c3)ncn2)c(OC)cc1N1CC(N(C)C)C1` [compound 10]: the IC50 is 27.7 nM in the experiment with PC-9, 47.3 nM with NCI-H1975 and 1990 nM with A-431. Also, the “A-431/NCI-H1975 Selectivity” value in the experiment with NCI-H1975 was determined as 42.0.
Taken in the same sequence, the figures for `C=CC(=O)Nc1cc(Nc2cc(-c3ccc4c(cnn4C)c3)ncn2)c(OC)cc1C1CCN(C)CC1` [compound 11] were 21.8 nM, 67.4 nM, 2140 nM and 31.7.
Taken in the same sequence, the figures for `C=CC(=O)Nc1cc(Nc2cc(-c3ccc4c(cnn4C)c3)ncn2)c(OC)cc1C(=O)N1CCN(C)CC1` [compound 12] were 56.9 nM, 53.1 nM, 4130 nM and 77.7.
In the case of `C=CC(=O)Nc1c(N(C)CCN(C)C)cc(OC)c(Nc2cc(-c3ccc4c(cnn4C)c3)ncn2)c1F` [compound 13], the figures for the half-inhibitory concentration (IC50) in the experiment on PC-9, in the experiment with NCI-H1975 and in the experiment with A-431 were 8.6 nM, 1.8 nM and 770 nM, respectively.
Turning to `C=CC(=O)Nc1cc(Nc2cc(-c3ccc4c(cnn4CC)c3)ncn2)c(OC)cc1N(C)CCN(C)C` [compound 14], the IC50 is 5.9 nM in the experiment with PC-9, 6.1 nM with NCI-H1975 and 1150 nM with A-431. The “A-431/NCI-H1975 Selectivity” value in the experiment on NCI-H1975 is 188.0.
Taken in the same sequence, the figures for `C=CC(=O)Nc1cc(Nc2cc(-c3ccc4c(cnn4C(C)C)c3)ncn2)c(OC)cc1N(C)CCN(C)C` [compound 15] were 12.7 nM, 21.6 nM, 1290 nM and 59.7.
Turning to `C=CC(=O)Nc1cc(Nc2nccc(-c3ccc4cnn(C)c4c3)n2)c(OC)cc1N(C)CCN(C)C` [compound 16], the IC50 with PC-9 is 40.5 nM; with NCI-H1975, 57 nM; in the experiment on A-431 it was 1550 nM. For the same compound, in the experiment on NCI-H1975, the “A-431/NCI-H1975 Selectivity” value is 27.1.
Taken in the same sequence, the figures for `C=CC(=O)Nc1cc(Nc2nccc(-c3ccc4cnn(C(C)C)c4c3)n2)c(OC)cc1N(C)CCN(C)C` [compound 17] were 16.9 nM, 22.2 nM, 1250 nM and 56.2.
The corresponding values for `C=CC(=O)Nc1cc(Nc2cc(-c3ccc4c(cnn4C)c3)ncn2)c(OC)cc1N1CCN(CC)CC1` [compound 18] are 8.9 nM, 11.1 nM, 983 nM and 88.8.
The corresponding values for `C=CC(=O)Nc1cc(Nc2cc(-c3ccc4c(cnn4C)c3)ncn2)c(OC)cc1N1CCN(C(C)C)CC1` [compound 19] are 10.7 nM, 18.1 nM, 850 nM and 47.0.
As for `C=CC(=O)Nc1cc(Nc2cc(-c3ccc4c(cnn4C)c3)ncn2)c(OC)cc1N1CCN(C(C)=O)CC1` [compound 20], the values for the IC50 in the experiment with PC-9, in the experiment on NCI-H1975 and in the experiment on A-431 were 24.9 nM, 46.1 nM and 1570 nM, respectively. In addition, the “A-431/NCI-H1975 Selectivity” value with NCI-H1975 was found to be 33.9.
Taken in the same sequence, the figures for `C=CC(=O)Nc1cc(Nc2cc(-c3ccc4c(cnn4C)c3)ncn2)c(OC)cc1N1CCN(C)C[C@H]1C` [compound 21] were 29.6 nM, 46.4 nM, 2770 nM and 59.7.
Taken in the same sequence, the figures for `C=CC(=O)Nc1cc(Nc2cc(-c3ccc4c(cnn4C)c3)ncn2)c(OC)cc1N1CCN(C)C(C)C1` (stereo not drawn) [compound 22] were 13.4 nM, 18.1 nM, 1060 nM and 58.3.
Taken in the same sequence, the figures for `C=CC(=O)Nc1cc(Nc2cc(-c3ccc4c(cnn4C)c3)ncn2)c(OC)cc1N1C[C@@H]2C[C@H]1CN2C` [compound 25] were 67.8 nM, 54.7 nM, 736 nM and 13.5.
Take `C=CC(=O)Nc1cc(Nc2cc(-c3ccc4c(cnn4C)c3)ncn2)c(OC)cc1N1CCN(CC)[C@@H](C)C1` [compound 28]: the IC50 was determined as 19.6 nM in the experiment with PC-9, 32.3 nM in the experiment with NCI-H1975 and 1430 nM in the experiment on A-431. Further, in the experiment on NCI-H1975, the “A-431/NCI-H1975 Selectivity” value was 44.2.
Taken in the same sequence, the figures for `C=CC(=O)Nc1cc(Nc2cc(-c3ccc4c(cnn4C)c3)ncn2)c(OC)cc1N1CCN(CC)[C@H](C)C1` [compound 29] were 79.9 nM, 55.7 nM, 1810 nM and 32.6.
With `C=CC(=O)Nc1cc(Nc2cc(-c3ccc4c(cnn4C)c3)ncn2)c(OC)cc1N1CCN(C)[C@@H](C)C1` [compound 30], the IC50 with PC-9 is 24.7 nM; with NCI-H1975, 32.4 nM; in the experiment with A-431, 1350 nM. Further, the “A-431/NCI-H1975 Selectivity” value in the experiment with NCI-H1975 is reported as 41.8.
Taken in the same sequence, the figures for `C=CC(=O)Nc1cc(Nc2cc(-c3ccc4c(cnn4C)c3)ncn2)c(OC)cc1N1CCN(C)[C@H](C)C1` [compound 31] were 45.6 nM, 52.7 nM, 1580 nM and 29.9.
The corresponding values for `C=CC(=O)Nc1cc(Nc2cc(-c3ccc4c(cnn4C)c3)ncn2)c(OC)cc1N1CCN(CC(F)(F)F)CC1` [compound 32] are 10.9 nM, 186 nM, 9330 nM and 50.1.
Turning to `C=CC(=O)Nc1cc(Nc2cc(-c3ccc4c(cnn4C)c3)ncn2)c(OC)cc1N(C)C1CCN(C)CC1` [compound 35], the IC50 in the experiment on PC-9 was 16.4 nM; in the experiment with NCI-H1975 it was 13.2 nM; with A-431, 1590 nM.
Turning to `C=CC(=O)Nc1cc(Nc2cc(-c3ccc4c(cnn4C)c3)ncn2)c(OC)cc1N(C)C1CCN(C)C1` (stereo not drawn) [compound 57], the figures for the IC50 in the experiment on NCI-H1975 and with A-431 were 13.3 nM and 1420 nM, respectively.
With `C=CC(=O)Nc1cc(Nc2cc(-c3ccc4c(cnn4C)c3)ncn2)c(OC)cc1N(C)C1CCOCC1` [compound 106], in the experiment on NCI-H1975, 96.9 nM corresponded to half-maximal inhibition (IC50) and the “A-431/NCI-H1975 Selectivity” value was 20.8. The compound further came in with a half-maximal inhibitory concentration (IC50) with A-431 of 2020 nM.
